From patent publication US20160304957A1, “TREATMENT AND MODULATION OF GENE EXPRESSION AND SKIN AGING” (DSM NUTRITIONAL PRODUCTS LTD., priority 2006, published 2016)

Experiments:
[1] = test system: HaCaT cells
Excerpt: HaCaT cells were obtained from Prof. Fusenig, German Cancer Research Centre, Heidelberg. To gather cells more representative for the upper epidermal layer, we cloned the original cells by endpoint dilution. […] Cytokeratins were detected using anti-cytokeratin clones AE1/AE3 (Boehringer Mannheim, Germany) and anti-cytokeratin 1,10 antibody (Biogenesis Ltd., Poole, UK), respectively. […] Cells were propagated in FAD medium (DMEM/HAM's F12 3:1, Invitrogen); 5% NuSerum IV culture supplement and Miton™ 1:1000 (both Becton Dickinson, Bedford, Mass., USA). On day 0 of the experiment, cells were seeded at 2×10^5 cells per 60 mm dish. Cells were counted using a Coulter Multisizer (IG Instrumenten Gesellschaft, Zurich, Switzerland). […] On days 1 and 2, the media were replaced with fresh β-carotene-containing FAD medium without phenol red; 2% NuSerum; penicillin/streptomycin.
β-Carotene stock solutions and β-carotene-containing media were prepared under reduced light conditions. All-E-β-carotene was synthesized by DSM Nutritional Products (Kaiseraugst, Switzerland). β-carotene was dissolved in tetrahydrofurane (THF containing 0.025% butyl hydroxytoluol; Fluka Chemie A G, Buchs, Switzerland). Immediately before preparing the β-carotene stock solution, THF was purified over a basic aluminum oxide grade 1 (Camag, Muttenz, Switzerland) column. The n-carotene stock solution was prepared fresh for each experiment, and stored under argon at −20° C. until use. To prepare β-carotene-containing medium, the β-carotene stock solution was first diluted 1:1 with ethanol. This β-carotene/solvent mixture was then added to the cell culture medium to give a final concentration of 0.5, 1.5, or 3 μM β-carotene. β-carotene-containing medium was prepared fresh for the daily medium changes. The solvent concentration in the medium was kept constant at 0.5% for all treatment conditions.
All extraction and analytical procedures were carried out in brown glass, and under reduced light conditions. Acetonitrile, tert-butylmethylether, acetone and ethanol p. a. were from E. Merck K G (Darmstadt, Germany). Ammonium acetate p.a., butylated hydroxy toluene p.a., tetrahydrofuran p.a., triethylamine p.a., were from Fluka Chemie A G (Buchs, Switzerland). HPLC grade solvents for stock solutions, dilutions, and sample solvent mixtures were additionally purified over basic aluminum oxide grade 1 (Camag, Muttenz, Switzerland). To determine the β-carotene content of cells, the cell layer was washed 5 times with PBS/2% BSA. The cells were detached by trypsin/EDTA 0.05/0.02% and centrifuged at 10,000×g for 1 minute Cell pellets were lysed with acetone containing 0.025% BHT (v/w), vortex-mixed and dried in a speed-vac. The dried residue was extracted with ethanol/tBME/THF, 9:5:1, containing 0.025% of BHT (v/w) by vigorous vortex-mixing for one minute, and centrifugation for 3 minutes at 10,000×g. An aliquot of the clear supernatant was injected into the HPLC system. Cell culture medium was directly extracted with the solvent mixture described above, and the extract was treated as described for the cell pellets.
The HPLC system consisted of a 520 pump, a 565 autosampler cooled at 6° C., a 540+ diode array detector, a SDU 2003 solvent degasser unit and the Chroma 3000 data analysis system from Bio-Tek Instruments (Basel, Switzerland). A Vydac 218TP54 column (250×4.5 mm i.d., 300 angstrom pore wide) from the Separation Group (Hesperia, USA) was used for separation.

[2] = test system: MMP-3; assay: QRT-PCR gene expression in HaCaT cells with or without UVA; format: cell-based, human
Description: (§1) HaCaT cells were obtained from Prof. Fusenig, German Cancer Research Centre, Heidelberg. […] The accuracy of cell counting was approximately 99%.
(§2) On day 3 of the experiment, cells were washed six times with Ca/Mg-free PBS containing 2% BSA, and then irradiated with light with a Hönle sun lamp Sol 500 (Dr. Hönle, Plannegg, Germany) at a dose of 270 kJ/m^2 in Ca/Mg-free PBS (2 hour exposure time at […]). The experimental schedule was chosen because the cells had optimal UVA sensitivity after 48 hours in culture. […] Confluent cultures were much less sensitive to irradiation.
(§3) After irradiation, the cells were supplied with fresh β-carotene-containing serum-free medium and kept in the incubator at 37° C., 5% CO2 until harvest of the samples. In experiments in which the half-life of ^1O2 was prolonged by D2O to enhance its effect, PBS was prepared in D2O, instead of in H2O, as it was done for the standard conditions described above. Cells were washed twice in D2O-PBS prior to irradiation in D2O-PBS. After irradiation, cells were maintained with fresh β-carotene-containing serum-free medium. Sham controls were treated in an identical manner, by placing them under the solar simulator but shielded from light.
(§4) Total RNA was isolated by using Trizol™ (Invitrogen, Basel, Switzerland) according to the instructions of the manufacturer. Random-primed cDNA was synthesized using the Superscript pre-amplification system for first strand cDNA synthesis (Invitrogen).
(§5) cDNA corresponding to 10 ng total RNA was used as template to quantify the relative RNA expression of the genes of interest by TaqMan® real time PCR.
(§6) The PCR analyses were carried out in triplicate and in a multiplex setup, using 18S rRNA as a calibrator gene. The rRNA primers were used at a final concentration of 50 nM, the probe at 100 nM. For quantification of the genes of interest, the primer concentrations were optimized for sensitivity of template detection. […] PCR reactions were carried out for 40 cycles of 95° C. for 15 seconds and 60° C. for 1 minute in an ABI7700 (Applied Biosystems, Rotkreuz, Switzerland). Regulation of gene expression was calculated as described in user bulletin #2 provided by the manufacturer. A threshold cycle (“CT”) is the first PCR cycle in which an amplification signal is detected. Expression levels are given as δCT values. The δCT value describes the level of gene expression as the average PCR cycle, in which the gene of interest was detected first (CT value), subtracted by the CT value of the calibrator gene 18S rRNA (CTgene of interest−CTcalibrating gene), 18S rRNA served as a measure for the amount of template in the reaction. Routinely, 18S rRNA was detected between PCR cycle 12 and 13 (SE=standard error) A low δCT corresponds to a high mRNA level.

[3] = test system: MMP-2; assay: as above; format: cell-based, human
Description: as §1, §2, §3, §4, §5, §6

[4] = test system: MMP-9; assay: as above; format: cell-based, human
Description: as §1, §2, §3, §4, §5, §6

[5] = test system: MMP-10; assay: as above; format: cell-based, human
Description: as §1, §2, §3, §4, §5, §6

[6] = test system: MMP-1; assay: as above; format: cell-based, human
Description: as §1, §2, §3, §4, §5, §6

[7] = β-carotene 1.5 μM, with or without UVA

SMILES: CC1=C(/C=C/C(C)=C/C=C/C(C)=C/C=C/C=C(C)/C=C/C=C(C)/C=C/C2=C(C)CCCC2(C)C)C(C)(C)CCC1 [β-carotene, All-E-β-carotene]
- Retinol cellular content [1]: <LOD
- Retinyl Palmitate cellular content [1]: <LOD
- cellular β-carotene content relative to 72 hours [1]: about half
- retinol or retinyl esters formed from β-carotene [1]: do not produce detectable amounts
- time of peak cellular β-carotene concentration [1]: 72 h
- MMP-3 induction by UVA ([2]; presence or absence of D2O): prevented MMP-3 induction
- UVA-induction of MMP-3 ([2]; β-carotene 1.5 μM, UVA alone approx. 49 fold): 27 fold
- MMP-2 expression ([3]; UVA/D2O experiments): no significant effect
- MMP-2 expression [3, 7]: did not influence their expression significantly
- MMP-9 expression ([4]; UVA/D2O experiments): no significant effect
- MMP-9 expression, tendency ([4]; irradiated and unirradiated cells): tended to lower expression
- MMP-9 expression [4, 7]: did not influence their expression significantly
- basal MMP-10 expression ([5]; unirradiated cells): tended to reduce
- UVA induction of MMP-10 ([5]; β-carotene 1.5 μM, UVA alone about 3 fold): approx. 2.5 fold
- MMP-10 induction by UVA and D2O ([5]; β-carotene 0.5, 1.5, 3 μM): opposed MMP-10 induction by UVA and D2O in a dose-dependent fashion
- basal MMP-1 RNA expression ([6]; unirradiated cells): tended to reduce
- UVA-induced MMP-1 induction ([6]; β-carotene 1.5 μM, 5 hours after UVA, UVA alone 1.3 fold): 0.9 fold
- UVA/D2O-induced MMP-1 induction ([6]; β-carotene 0.5, 1.5, 3 μM): significantly and dose-dependently reduced
